Key:
LXRα = experiment: Expression of LXRα protein in liver of mice with high-fat diet-induced fatty liver, western blotting; type: in vivo; conditions: oral, 10 mg/kg/day or 30 mg/kg/day for 2 days; liver tissue; FIG. 11b
Description: (§1) 3 days after the diet was fed, the mice were fed the high-fat diet containing safflower oil while being orally administered JC1-40 and JC1-42, which had been diluted with 0.5% carboxymethyl cellulose, at a dose of 10 mg/kg/day or 30 mg/kg/day for 2 days. 5 days after the diet was fed, the mice were sacrificed to extract liver tissues therefrom, and the expression of proteins was analyzed by western blotting analysis. That is, after treatment, each liver tissue was homogenized in a lysis buffer containing 50 mM NaCl, 50 mM Tris pH 7.4, 5 mM EDTA, 1% NP-40, and a protease inhibitor, and then centrifuged to obtain a total cell lysate. 20 μg to 30 μg of proteins collected from the total cell lysate was subjected to 7% to 9% SDS-PAGE, and was transferred to a polyvinylidene difluoride membrane (Millipore, Bedford, Mass., USA). […] Immunoreactive proteins were detected with Amersham ECL western blotting detection reagents using an HRP-conjugated secondary antibody (Zymed Lab). Protein concentrations were quantified by BCA (Pierce) analysis, and the expression of α-tubulin was monitored as a control. […]

AMPK = experiment: Phosphorylation of AMPK in liver of mice with high-fat diet-induced fatty liver, western blotting; type: in vivo; conditions: oral, 10 mg/kg/day or 30 mg/kg/day for 2 days; liver tissue; FIG. 11b
Description: as §1

[1] = system: high-fat diet-induced fatty liver mice model; experiment: Blood biochemical analysis in high-fat diet-induced fatty liver mice model; type: in vivo; conditions: FIG. 13; for amount of blood triglycerides, which had been increased by the high-fat diet / amount of blood glucose / amount of total blood cholesterol: oral, 10 mg/kg/day or 30 mg/kg/day for 2 days; for amount of blood glucose / amount of total blood cholesterol: versus high-fat diet group
Description: (§2) 3 days after the diet was fed, the mice were fed the high-fat diet containing safflower oil while being orally administered JC1-40 and JC142, which had been diluted with 0.5% carboxymethyl cellulose, at a dose of 10 mg/kg/day or 30 mg/kg/day for 2 days. 5 days after the diet was fed, the mice were sacrificed to collect blood, and serum samples were collected therefrom.

FAS [2] = experiment: Expression of FAS protein in liver of mice with high-fat diet-induced fatty liver, western blotting; type: in vivo; conditions: oral, 10 mg/kg/day or 30 mg/kg/day for 2 days; liver tissue; FIG. 11b
Description: as §1

[3] = system: alcoholic fatty liver mice model; experiment: Alcoholic fatty liver mice model (Lieber-DeCarli liquid diet); type: in vivo, mice (C57BL/6); conditions: oral, 10 mg/kg body weight once a day for 2 weeks
Description: Eight-week-old black male laboratory mice (C57BL/6) were divided into: 1) control (n=8); 2) JC1-40-administered control (n=8); 3) alcohol group (n=12); and 4) JC1-40-administered alcohol group (n=12), and fed a Lieber-DeCarli liquid diet (Dyets Inc, Bethlehem, Pa., USA). The Lieber-DeCarli liquid diet in the form of powder was purchased, and then water was added thereto every morning to form a liquid-type feed such that 1 ml of the feed contained 1 kcal. The alcohol group was fed a gradually increasing amount of alcohol with an increment of 0.5% during a 2-week adaptation period, and then was fed a feed containing 5% alcohol for 5 weeks. The feed of the control included maltose dextrin instead of alcohol, and for pair-feeding, the feed included maltose dextrin in an amount providing the same calories as the calories that the amount of the feed fed to the mice of the alcohol group contained. During the 5-week ingestion of 5% alcohol, JC1-40 diluted with 0.5% carboxymethyl cellulose was orally administered once a day at a dose of 10 mg/kg body weight for 2 weeks prior to sacrificing the mice. After the 5-week alcohol feeding period was completed, the mice were fasted for 12 hours, and anesthetized to incise the abdomen, and blood and liver were removed from each mouse.

[4] = system: mice with high-fat diet-induced fatty liver; experiment: Intrahepatic triglyceride, intrahepatic fat accumulation and body weight in mice with high-fat diet-induced fatty liver; type: in vivo; conditions: oral, 10 mg/kg/day or 30 mg/kg/day for 2 days; for amount of intrahepatic triglyceride, which had been increased by the high-fat diet: FIG. 12a; for intrahepatic fat accumulation (Oil Red O staining): FIG. 12b; for body weights of the mice, which had been increased by the high-fat diet: FIG. 12c
Description: as §2, with “extract liver tissues therefrom,” for “collect blood,”, “the amounts of intrahepatic triglycerides” for “serum samples”, “measured using an EnzyChrom™ triglyceride assay kit (BioAssay Systems).” for “collected therefrom.”
In addition, Oil Red O staining, which enables the identification of intrahepatic fat accumulation, was performed on the extracted liver tissues of the mice.

FAS [5] = experiment: Expression of FAS protein in HepG2 cells, western blotting; type: cell-based, human; conditions: for expression of FAS, which had been increased by T17: 0, 1, 10, 50, 100 μM with 1 μM T17, 24 hours, FIGS. 6b and 6c; for expression of FAS protein: 100 μM, 24 hours, FIG. 6a
Description: HepG2 cells (1×10^6 cells/well) were seeded on a 60-dish and cultured overnight in a DMEM containing 10% FBS. The HepG2 cells were maintained at 37° C. in a humidification thermostat containing 5% CO2 and 95% air. After culturing, the HepG2 cells were treated with each of the JC1-38, JC1-40, and JC1-42 compounds at a concentration of 100 μM, and, as a positive control, the HepG2 cells were treated with 2 mM metformin, which is an AMPK activator, for 24 hours. After treatment, the expression of proteins was analyzed by western blotting analysis. That is, after treatment, the HepG2 cells were destroyed on ice in a lysis buffer containing 50 mM NaCl, 50 mM Tris pH 7.4, 5 mM EDTA, 1% NP-40, and a protease inhibitor for 30 minutes, and then centrifuged to obtain a total cell lysate. 20 μg to 30 μg of proteins collected from the total cell lysate was subjected to 7% to 9% sodium dodecyl sulfate-polyacrylamide gel electrophoresis (SDS-PAGE), and was transferred to a polyvinylidene difluoride membrane (Millipore, Bedford, Mass., USA). The resulting product was subjected to blocking with 5% or 10% (w/v) nonfat dry milk in PBS containing 0.1% Tween-20, and was reacted with antibodies specific to RORα (Affinity BioReagents), LXRα, SREBP-1, FAS (Santa Cruz Biotechnology), phospho-ACC (Cell signaling), and α-tubulin (Calbiochem). Immunoreactive proteins were detected with Amersham ECL western blotting detection reagents using a horseradish peroxidase (HRP)-conjugated secondary antibody (Zymed Lab). Protein concentrations were quantified by bicinchoninic acid (BCA) (Pierce) analysis, and the expression of α-tubulin was monitored as a control. The results thereof are illustrated in FIG. 6a.
In addition, HepG2 cells were cultured under the same conditions, and then the HepG2 cells were treated with particular concentrations (0 μM, 1 μM, 10 μM, 50 μM, and 100 μM) of JC1-40 (or JC1-42) and 1 μM T17 for 24 hours. After treatment, the expression of proteins was analyzed by western blotting analysis, and the expression of α-tubulin was monitored as a control. The results thereof are illustrated in FIGS. 6b and 6c.

[6] = 30 mg/kg/day, compared to the high-fat diet group

| Compound | expression of LXRα protein, which had been increased by the high-fat diet (LXRα) | phosphorylation of AMPK (AMPK) | GOP [1, 6] | GPT [1, 6] | amount of high-density lipoproteins [1, 6] | amount of blood triglycerides, which had been increased by the high-fat diet [1] | amount of blood glucose [1] | amount of total blood cholesterol [1] | expression of FAS protein, which had been increased by the high-fat diet (FAS [2]) | GOT in plasma ([3]; alcohol group, FIG. 16a) | GPT in plasma ([3]; alcohol group, FIG. 16a) | level of blood triglycerides ([3]; alcohol group, FIG. 16b) | weight percentage of liver in body ([3]; alcohol group, FIG. 16d) | accumulation of alcohol-induced lipid vesicles (Hematoxyllin & Eosin) ([3]; liver tissue) | amount of intrahepatic triglyceride, which had been increased by the high-fat diet [4] | intrahepatic fat accumulation (Oil Red O staining) [4] | body weights of the mice, which had been increased by the high-fat diet [4] | expression of FAS, which had been increased by T17 (FAS [5]) | expression of FAS protein (FAS [5]) |
| --- | --- | --- | --- | --- | --- | --- | --- | --- | --- | --- | --- | --- | --- | --- | --- | --- | --- | --- | --- |
| CNC(=S)NCc1ccc(OCc2ccccc2)cc1 [Compound 40, 1-(4-benzyloxy-benzyl)-3-methyl-thiourea] | decreased | increased | decreased | decreased | increased | decreased | not different from those in the high-fat diet group | not different from those in the high-fat diet group | decreased | decreases in GPT and GOT to levels of the control | decreases in GPT and GOT to levels of the control | significantly decreased | decreased with high significance | significantly reduced | decreased | decreased | decreased | decreased in a manner dependent on the concentration | decreased |
| CNC(=S)NCc1ccc(Oc2ccccc2)cc1 [Compound 42, 1-(4-phenoxy-benzyl)-3-methyl-thiourea] | decreased | increased | – | – | increased | decreased | not different from those in the high-fat diet group | not different from those in the high-fat diet group | decreased | – | – | – | – | – | decreased | decreased | decreased | decreased in a manner dependent on the concentration | decreased |

Reference: patent US10407388B2, “Thiourea derivatives as activators of RORα and pharmaceutical composition containing same” (SEOUL NATIONAL UNIVERSITY R & DB FOUNDATION, priority 2011, dated 2019)
